Drawing on PubChem BioAssay AID977621 (Broad Institute, 2014), this text covers AC50 for 81 compounds.

Inconclusive results are not listed. The source made the active and inactive calls.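 How the source made its calls: active means Wild-type ribosome reporter drop at least double the humanized mutant ribosome reporter drop, growth loss under a set limit; inconclusive means no clear call, values can overlap the other calls; inactive means the rest.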 Some results are limits rather than exact numbers.

The experiment has as its system E. coli wild-type GFP strain growth, fluorescence, 24 h. Nature of the experiment: growth inhibition of wild-type GFP E. coli, dose response, H69 mutant RFP, cherry-pick (AID 977621).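 Further: wild-type GFP and H69 mutant RFP strains grown together 50/50 in each well.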
[1] abbreviates: E. coli mixed culture, 24 h, measured here: total growth OD600, test 2.

Broadly, the AC50 is the midpoint of the concentration-response curve, whichever way the signal moves. Turning to `O=C(c1cc(C(=O)N2CCOCC2)c2nc3ccccc3n2c1)c1cc(Cl)cc(Cl)c1O`, the AC50 is > 100 µM (inactive). The compound further gave an AC50 under setting [1] above 100 µM.

Compound `Cc1ccc(C2NC(c3ccc(C)cc3)C(C)C(=O)C2C)cc1` (centres undefined) yielded a concentration at half-maximal activity (AC50) under setting [1] of 47.8 µM. Still for that read-out and setting: under `O=C(CSc1ccccc1)NCCCc1ccccc1` stands above 100 µM.

`CCOC(=O)c1sc2nc(NC(=O)C(C)(C)C)sc2c1C`: the AC50 was > 100 µM (inactive). Under setting [1], this compound gave an AC50 of 38.9 µM. For `CCOc1ccc(OCC)c(NC(=O)CSc2nc3cccnc3n2C)c1` the same measures were > 100 µM (inactive) and 36.6 µM. In the case of `Cc1[nH]nc2c1C(c1ccc(F)cc1)N(Cc1ccccc1)C2=O` (centres undefined), the AC50 is > 100 µM (inactive).

`Cc1cnc(NC(=O)Cc2c[nH]c3ccccc23)s1`: the AC50 was > 100 µM (inactive). With `Cc1ccc(NC(=O)c2ccc(Br)o2)cc1S(=O)(=O)N(C)C`, the AC50 is > 100 µM (inactive). Under setting [1], this compound yielded a concentration at half-maximal activity (AC50) above 100 µM. `COc1ccc(-c2cc(C(=O)Nc3ccc(C(N)=O)cc3)c3ccccc3n2)cc1OC` yielded a concentration at half-maximal activity (AC50) under setting [1] above 100 µM. Turning to `O=S1(=O)N[C@@H](Cc2ccccc2)COc2cc(N3CCC[C@H]3CO)ccc21`, the AC50 is > 100 µM (inactive). In turn, `CC(NC(=O)c1ccncc1)c1ccc(Cl)cc1Cl` (centres undefined) registered an AC50 under setting [1] above 100 µM. On to `COc1ccc(Cc2nnc(Nc3ccc(C)cc3)o2)cc1OC`, for which the AC50 was > 100 µM (inactive). Same read-out and setting: under `C[C@@H]1CCCCO[C@@H](CN(C)C(=O)c2ccccc2)[C@H](C)CN([C@@H](C)CO)C(=O)c2cc(NC(=O)c3ccccc3)ccc2O1` stands > 100 µM (inactive). For the compound `CCn1c(SCC(=O)Nc2ccc(OC)cc2)nc2nc3c(cc2c1=O)CCCC3`, the AC50 under setting [1] is above 100 µM. For `COc1ccc(-n2c(-c3ccc(C)cc3)nc3ccccc3c2=O)cc1`, the AC50 is > 100 µM (inactive). For the compound `O=C1OCCC1Sc1nc2ccccc2c(=O)n1Cc1ccccc1` (centres undefined), the AC50 was > 100 µM (inactive). As to `CCOC(=O)C(CC)Sc1cc(C)nc2ccc(OC)cc12` (centres undefined), the AC50 under setting [1] is above 100 µM. `O=C(CCC(=O)N1CCN(c2ccc(F)cc2)CC1)N1CCN(c2ccc(F)cc2)CC1`: the AC50 was > 100 µM (inactive). The compound further came in with a half-maximal activity concentration (AC50) under setting [1] above 100 µM. In the case of `COc1ccc(OC)c(S(=O)(=O)Nc2cccc3ccccc23)c1`, the AC50 is > 100 µM (inactive).

In the case of `COc1cc(C2CC(=O)Oc3cc(C)cc(C)c32)cc(OC)c1OC` (centres undefined), the AC50 was > 100 µM (inactive).

Consider `CS(=O)(=O)c1cccc(C(=O)Nc2cccc(-c3nc4ccccc4[nH]3)c2)c1`, for which the AC50 is > 100 µM (inactive). Take `CSc1ccccc1C(=O)NCCc1ccc(S(=O)(=O)N2CCCCC2)cc1`: the AC50 was > 100 µM (inactive). Turning to `Nc1ccccc1Sc1ccc(C(F)(F)F)cc1[N+](=O)[O-]`, the AC50 is > 100 µM (inactive). Under setting [1], `C[C@H](CO)N1C[C@H](C)[C@@H](CN(C)Cc2ccncc2)OCc2ccccc2-c2c(n(C)c3ccccc23)C1=O` showed an AC50 of 40.2 µM. As for `CC(CCc1ccccc1)NC(=O)CNC(=O)COc1ccccc1` (centres undefined), the AC50 under setting [1] was above 100 µM. For the compound `COc1ccccc1-c1cc2nc(NCCc3ccncc3)ccn2n1`, the AC50 is > 100 µM (inactive).

As to `O=C(NCc1ccc2c(c1)OCO2)c1sccc1Br`, the AC50 was > 100 µM (inactive).

Turning to `O=C(C[n+]1ccn(-c2ccccc2)c1)c1ccc([N+](=O)[O-])cc1`, the AC50 was > 100 µM (inactive).

`C=CCn1c(C)cc(C(=O)COC(=O)CNC(=O)c2ccccc2)c1C` registered a half-maximal activity concentration (AC50) under setting [1] of 44 µM. Consider `O=C(Nc1ccc(Cl)cn1)c1cc2c(s1)-c1ccccc1OC2`, for which the AC50 under setting [1] was above 100 µM. Regarding `CO[C@@H]1CN(C)C(=O)c2ccc(NC(=O)c3nc4ccccc4s3)cc2OC[C@@H](C)N(Cc2ccncc2)C[C@@H]1C`, the AC50 is 52 µM (inactive). Still for that read-out and setting: then `OCCCc1cn(-c2ccccc2)c2ccccc12`, with > 100 µM (inactive); and `CC(C)Nc1nnc(SCC(=O)Nc2sccc2C#N)s1`, with > 100 µM (inactive).

In turn, `CCc1cc2ccc(OC)cc2nc1SCC(=O)N1CCN(C(=O)c2ccco2)CC1` registered an AC50 under setting [1] of 42.2 µM. As to `O=C1c2ccccc2S(=O)(=O)c2cc(N3CCC(C(=O)N4CCCCC4)CC3)ccc21`, the AC50 is > 100 µM (inactive).

With `Cc1onc(-c2ccccc2)c1-c1nnc(-c2ccccc2C(F)(F)F)o1`, the AC50 is > 100 µM (inactive). In the case of `Cc1noc(C)c1NC(=O)Nc1ccc2c(c1)C(=O)N([C@H](C)CO)C[C@H](C)[C@H](CN(C)C(=O)Nc1ccc3c(c1)OCO3)OCCCC[C@H](C)O2`, under setting [1], the AC50 was above 100 µM. Take `N#Cc1cccc(-c2ccc3c(c2)[C@H]2[C@H](CCN2C(=O)c2ccccc2F)[C@H](CO)N3)c1`: the AC50 is > 100 µM (inactive).

As for `O=C(O)c1ccc(COc2ccc3ccccc3c2)o1`, the AC50 is > 100 µM (inactive). The compound also returned an AC50 under setting [1] above 100 µM. Take `CCN(CC(=O)Nc1ccccc1OC)CC(=O)Nc1c(Cl)ccc(C)c1Cl`: the AC50 was > 100 µM (inactive). In the case of `COc1ccc(Cl)cc1NC(=O)C1Cc2ccccc2CN1S(C)(=O)=O` (centres undefined), the AC50 is > 100 µM (inactive). Turning to `O=C(Cn1cnc2ccccc21)c1ccc(Br)cc1`, the AC50 is > 100 µM (inactive). In turn, `COc1ccc(-c2csc(C)n2)cc1Br` showed an AC50 under setting [1] above 100 µM. `CC(=O)Nc1ccc(OCC(=O)N2CCC(Cc3ccccc3)CC2)cc1` displayed an AC50 under setting [1] above 100 µM. The compound `COc1cc(-c2ccc(N3C(c4ccsc4)=Cc4ccc(F)cc4C3c3c[nH]c4ccc(C#N)cc34)cc2)cc(OC)c1OC` (centres undefined) returned an AC50 under setting [1] above 100 µM.

In the case of `Cc1cc(-c2ccc(C)c(S(=O)(=O)NC(C)Cc3ccco3)c2)on1` (centres undefined), the AC50 is > 100 µM (inactive). In addition, under setting [1], the AC50 came out at 31 µM. For `CCSc1nc2ccccc2c(=O)n1Cc1ccc(F)cc1` the same measures were > 100 µM (inactive) and 49.4 µM. Regarding `Cc1ccc2c(c1C)OC(=O)CC2c1ccccc1` (centres undefined), the AC50 was > 100 µM (inactive). As for `COC(=O)CN1C(=S)N(c2ccc(Cl)cc2)C(=O)C1CC(=O)Nc1ccc(F)cc1` (centres undefined), the AC50 is > 100 µM (inactive). Further, under setting [1], the AC50 was above 100 µM. For `Cc1ccc(C(=O)CSc2nnc(COc3cccc4cccnc34)o2)cc1` the same measures were > 100 µM (inactive) and 46.3 µM.

Consider `CN(C)C(CNS(=O)(=O)c1cc([N+](=O)[O-])ccc1Cl)c1ccco1` (centres undefined), for which the AC50 was > 100 µM (inactive). On the same count and under the same terms, under `Cc1ccc(NC(=O)c2ccc([N+](=O)[O-])o2)c(C)c1` stands > 100 µM (inactive). Turning to `Cc1ccc(OCC(O)CN2CCN(c3ccccn3)CC2)c(C)c1` (centres undefined), the AC50 was > 100 µM (inactive). The compound also came in with a concentration at half-maximal activity (AC50) under setting [1] of 45.6 µM.

For the compound `CCN(CC)C(=O)c1ccc(COc2ccccc2Cl)o1`, the AC50 under setting [1] was above 100 µM. Take `COc1cccc(NS(=O)(=O)c2ccc(-c3coc(C)n3)cc2)c1`: the AC50 was > 100 µM (inactive). Besides, the AC50 under setting [1] was 3.29 µM. Consider `O=C(O)c1ccc(-c2noc(-c3cccc(Cl)c3)n2)cc1`, for which the AC50 is > 100 µM (inactive). Turning to `CSCCC(=O)Nc1nc(-c2ccccn2)cs1`, the AC50 was > 100 µM (inactive). `C[C@@H]1CCCCO[C@H](CN(C)C)[C@H](C)CN([C@H](C)CO)C(=O)c2cc(NC(=O)Nc3cccc4ccccc34)ccc2O1` displayed an AC50 under setting [1] above 100 µM. Regarding `CCc1cc2c(NC(Cc3c[nH]c4ccccc34)C(=O)O)nc(C)nc2s1` (centres undefined), the AC50 is > 100 µM (inactive). `O=C(c1cc(COc2ccc(F)cc2F)on1)N1CCCC(c2ccccc2)C1` (centres undefined): the AC50 was > 100 µM (inactive). For the same compound, the AC50 under setting [1] worked out at 14.5 µM. Turning to `Nc1ccc(C(=O)Nc2ccc3nc(-c4ccncc4)[nH]c3c2)cc1`, the AC50 is > 100 µM (inactive).

With `COc1ccc(NC(=O)Nc2cccc3c2O[C@@H](CN(C)S(=O)(=O)c2ccc(Cl)cc2)[C@H](C)CN([C@H](C)CO)C3=O)cc1`, the AC50 is > 100 µM (inactive). Consider `CCN(C(=O)COC(=O)c1cc(-c2cccs2)nc2ccccc12)C1CCS(=O)(=O)C1` (centres undefined), for which the AC50 is > 100 µM (inactive). As to `Cc1ccc2nc(SCC(=O)c3ccc(O)cc3O)[nH]c2c1`, the AC50 was > 100 µM (inactive). In turn, `O=C(c1cnc(Cc2c[nH]c3ccccc23)c(I)c1)N1CCCCC1` yielded an AC50 under setting [1] of 29.6 µM. Turning to `COC(=O)c1ccccc1OCCOCCOc1cccc2ccc(C)nc12`, the AC50 is > 100 µM (inactive). Take `C=C1SC(Nc2c(C)cc(C)cc2C)=NC12CCCCC2`: the AC50 was > 100 µM (inactive). In addition, the AC50 under setting [1] worked out at 31.9 µM.

For `O=C(CCCOc1ccc(Cl)cc1Cl)Nc1ccccc1C(=O)O`, the AC50 under setting [1] was determined as 33.7 µM.

`COC(=O)COc1ccc(Cl)cc1C1Nc2ccccc2C(=O)N1c1ccc(OC)cc1` (centres undefined): the AC50 was > 100 µM (inactive). Further, the AC50 under setting [1] is above 100 µM. In the case of `O=C(NCc1cccnc1)c1ccc(COc2ccc3c(c2)CCC3)o1`, the AC50 is > 100 µM (inactive). For the compound `NS(=O)(=O)c1cccc(NC(=O)CSc2nc3ccccc3n2-c2ccccc2)c1`, the AC50 is > 100 µM (inactive). This compound also showed an AC50 under setting [1] of 40.3 µM. Take `Cc1cccc(CSCC(=O)N2CCN(S(=O)(=O)c3ccccc3C#N)CC2)c1`: the AC50 was > 100 µM (inactive).

Consider `Cc1cc(C)c2sc(N(CCN(C)C)C(=O)c3c(F)cccc3F)nc2c1`, for which the AC50 is > 100 µM (inactive). Under setting [1], this compound had an AC50 above 100 µM. Under setting [1], `CCOC(=O)c1cnc2c(c(C)nn2C)c1Oc1ccc(OC)cc1` registered an AC50 above 100 µM. Still for that read-out and setting: under `Cc1ccc(NS(=O)(=O)c2cc(C(=O)N3CCc4ccccc4C3)ccc2Cl)cc1` stands 33.3 µM. Under setting [1], `CCc1ccc(CN2CCCC(CNS(=O)(=O)c3ccc(OC)cc3)C2)cc1` (centres undefined) showed a concentration at half-maximal activity (AC50) above 100 µM. As to `Fc1cccc(CCN2C(=S)NC[C@@H]2CC2CCCCC2)c1`, the AC50 was > 100 µM (inactive). Besides, the AC50 under setting [1] was found to be 6.09 µM.

Take `Cc1nc(C)c(-c2ccn(S(=O)(=O)c3ccc(Cl)cc3)n2)o1`: the AC50 is > 100 µM (inactive). On to `Nc1ccc2nc(-c3ccc(Cl)cc3)[nH]c2c1`, for which the AC50 was > 100 µM (inactive).

Under setting [1], `COc1ccc(OCCC(=O)OCC(=O)NCCC2=CCCCC2)cc1` came in with an AC50 above 100 µM. For `C[n+]1ccccc1/C=C/c1cc(Br)ccc1O`, the AC50 was > 100 µM (inactive).
